Measured values from patent US20240358692A1, “TREATMENT OF SCLERODERMA” (Aisa Pharma, Inc., priority 2023, published 2024).

System: participants with SSc-RP
Assay: Average severity of weekly RP attacks (VAS 0-10)
Format: in vivo, human
Conditions: for Average Severity (0-10) of weekly RP attacks, Median / Average severity of weekly RP attacks, Change from Baseline, Mean / Average severity of weekly RP attacks, Change from Baseline, Median / Average severity of weekly RP attacks, Percent Change from Baseline, Mean / Average severity of weekly RP attacks, Percent Change from Baseline, Median / Average Severity (0-10) of weekly RP attacks, Mean: all attacks
Excerpt: The absolute change in average severity of weekly RP attacks (VAS 0-10 cm scale) from baseline to the end of each Dosing Period was and will be a secondary outcome variable. The sponsor-developed participant-informed diary will be used to record data. Average severity of weekly RP attacks is defined as the total severity scores of RP attacks divided by total number of RP attacks within the last 7 days of each dosing period. Total severity scores of RP attacks during the last 7 days of screening period divided by the total number of RP attacks will be used as baseline for the analysis of all periods. The variable will be calculated similar to frequency data as before.

[1] = Cilnidipine 10 mg, 1st Baseline RCS subgroup, ITT Part A, last 7 days of dosing period
[2] = Cilnidipine 10 mg, Excluding Outliers, 1st Baseline RCS subgroup, ITT Part A, last 7 days of dosing period
[3] = Cilnidipine 10 mg, ITT Part A, last 7 days of dosing period
[4] = Cilnidipine 10 mg, Excluding Outliers, ITT Part A
[5] = Cilnidipine 10 mg, Excluding Outliers, by Baseline RCS: first subgroup of Table C-8, ITT Part A
[6] = Cilnidipine 10 mg, by Baseline RCS: first subgroup of Table C-7, ITT Part A
[7] = Cilnidipine 10 mg, excluding outliers, ITT Part A
[8] = Cilnidipine 10 mg, excluding outliers, severity 0-10, ITT Part A
[9] = Cilnidipine 10 mg, severity 0-10, ITT Part A
[10] = Cilnidipine 20 mg, 1st Baseline RCS subgroup, ITT Part A, last 7 days of dosing period
[11] = Cilnidipine 20 mg, Excluding Outliers, 1st Baseline RCS subgroup, ITT Part A, last 7 days of dosing period
[12] = Cilnidipine 20 mg, ITT Part A, last 7 days of dosing period
[13] = Cilnidipine 20 mg, Excluding Outliers, ITT Part A
[14] = Cilnidipine 20 mg, Excluding Outliers, by Baseline RCS: first subgroup of Table C-8, ITT Part A
[15] = Cilnidipine 20 mg, by Baseline RCS: first subgroup of Table C-7, ITT Part A
[16] = Cilnidipine 20 mg, excluding outliers, ITT Part A
[17] = Cilnidipine 20 mg, excluding outliers, severity 0-10, ITT Part A
[18] = Cilnidipine 20 mg, severity 0-10, ITT Part A
[19] = Pooled Cilnidipine 10 mg and Cilnidipine 10 mg + Tadalafil 5 mg, 1st Baseline RCS subgroup, ITT Part A, last 7 days of dosing period
[20] = Pooled Cilnidipine 10 mg and Cilnidipine 10 mg + Tadalafil 5 mg, 2nd Baseline RCS subgroup, ITT Part A, last 7 days of dosing period

COCCOC(=O)C1=C(C)NC(C)=C(C(=O)OC/C=C/c2ccccc2)C1c1cccc([N+](=O)[O-])c1 (stereo not shown) [Cilnidipine]
−27.26%: Average Severity of Weekly RP Attacks (All Attacks), Percent Change from Baseline, Mean [12] | Average Severity of Weekly RP Attacks (All Attacks), Percent Change from Baseline, Median [12] | Average severity of weekly RP attacks, Percent Change from Baseline, Mean [13] | Average severity of weekly RP attacks, Percent Change from Baseline, Median [13] | Average severity of weekly RP attacks, Percent Change from Baseline, Mean [14] | Average severity of weekly RP attacks, Percent Change from Baseline, Median [14] | Average severity of weekly RP attacks, Percent Change from Baseline, Mean [15] | Average severity of weekly RP attacks, Percent Change from Baseline, Median [15]
5.23: Average Severity of Weekly Symptomatic RP Attacks, Mean [20] | Average Severity of Weekly Symptomatic RP Attacks, Median [20]
−1.22: Average Severity of Weekly Symptomatic RP Attacks, Change from Baseline, Mean [19] | Average Severity of Weekly Symptomatic RP Attacks, Change from Baseline, Median [19] | Average Severity of Weekly Symptomatic RP Attacks, Change from Baseline, Mean (Pooled Cilnidipine 10 mg and Cilnidipine 10 mg + Tadalafil 5 mg, Excluding Outliers, 1st Baseline RCS subgroup, ITT Part A, last 7 days of dosing period)
3.05: Average Severity of Weekly RP Attacks (All Attacks), Mean [3] | Average Severity of Weekly RP Attacks (All Attacks), Median [3] | Average Severity (0-10) of weekly RP attacks, Median [4] | Average Severity (0-10) of weekly RP attacks, Mean [5] | Average Severity (0-10) of weekly RP attacks, Median [5] | Average Severity (0-10) of weekly RP attacks, Mean [6] | Average Severity (0-10) of weekly RP attacks, Median [6]
−1.44: Average Severity of Weekly Symptomatic RP Attacks, Change from Baseline, Mean [10] | Average Severity of Weekly Symptomatic RP Attacks, Change from Baseline, Median [10] | Average Severity of Weekly Symptomatic RP Attacks, Change from Baseline, Mean [11] | Average Severity of Weekly Symptomatic RP Attacks, Change from Baseline, Median [11] | Average Severity of Weekly Symptomatic RP Attacks, Change from Baseline, Mean [17] | Average Severity of Weekly Symptomatic RP Attacks, Change from Baseline, Median [17] | Average Severity of Weekly Symptomatic RP Attacks, Change from Baseline, Mean [18] | Average Severity of Weekly Symptomatic RP Attacks, Change from Baseline, Median [18]
0.02: Average Severity of Weekly RP Attacks (All Attacks), Change from Baseline, Mean [3] | Average Severity of Weekly RP Attacks (All Attacks), Change from Baseline, Median [3] | Average severity of weekly RP attacks, Change from Baseline, Mean [4] | Average severity of weekly RP attacks, Change from Baseline, Median [4] | Average severity of weekly RP attacks, Change from Baseline, Mean [5] | Average severity of weekly RP attacks, Change from Baseline, Median [5] | Average severity of weekly RP attacks, Change from Baseline, Mean [6] | Average severity of weekly RP attacks, Change from Baseline, Median [6]
3.34: Average Severity of Weekly Symptomatic RP Attacks, Mean [19] | Average Severity of Weekly Symptomatic RP Attacks, Median [19]
0.55%: Average Severity of Weekly RP Attacks (All Attacks), Percent Change from Baseline, Mean [3] | Average Severity of Weekly RP Attacks (All Attacks), Percent Change from Baseline, Median [3] | Average severity of weekly RP attacks, Percent Change from Baseline, Mean [4] | Average severity of weekly RP attacks, Percent Change from Baseline, Median [4] | Average severity of weekly RP attacks, Percent Change from Baseline, Mean [5] | Average severity of weekly RP attacks, Percent Change from Baseline, Median [5] | Average severity of weekly RP attacks, Percent Change from Baseline, Mean [6] | Average severity of weekly RP attacks, Percent Change from Baseline, Median [6]
−32.85%: Average Severity of Weekly Symptomatic RP Attacks, Percent Change from Baseline, Mean [10] | Average Severity of Weekly Symptomatic RP Attacks, Percent Change from Baseline, Median [10] | Average Severity of Weekly Symptomatic RP Attacks, Percent Change from Baseline, Mean [11] | Average Severity of Weekly Symptomatic RP Attacks, Percent Change from Baseline, Median [11] | Average Severity of Weekly Symptomatic RP Attacks, Percent Change from Baseline, Mean (Cilnidipine 20 mg, ITT Part A) | Average Severity of Weekly Symptomatic RP Attacks, Percent Change from Baseline, Median (Cilnidipine 20 mg, ITT Part A) | Average Severity of Weekly Symptomatic RP Attacks, Percent Change from Baseline, Mean [16] | Average Severity of Weekly Symptomatic RP Attacks, Percent Change from Baseline, Median [16]
−36%: Severity (change) (Cilnidipine 20 mg (n = 3))
−20.18%: Average Severity of Weekly Symptomatic RP Attacks, Percent Change from Baseline, Mean [19] | Average Severity of Weekly Symptomatic RP Attacks, Percent Change from Baseline, Median [19]
−17.81%: Average Severity of Weekly Symptomatic RP Attacks, Percent Change from Baseline, Mean [20] | Average Severity of Weekly Symptomatic RP Attacks, Percent Change from Baseline, Median [20]
−1.13: Average Severity of Weekly Symptomatic RP Attacks, Change from Baseline, Mean [20] | Average Severity of Weekly Symptomatic RP Attacks, Change from Baseline, Median [20]
0.28: Average Severity of Weekly Symptomatic RP Attacks, Change from Baseline, Mean [1] | Average Severity of Weekly Symptomatic RP Attacks, Change from Baseline, Median [1] | Average Severity of Weekly Symptomatic RP Attacks, Change from Baseline, Mean [2] | Average Severity of Weekly Symptomatic RP Attacks, Change from Baseline, Median [2] | Average Severity of Weekly Symptomatic RP Attacks, Change from Baseline, Mean [8] | Average Severity of Weekly Symptomatic RP Attacks, Change from Baseline, Median [8] | Average Severity of Weekly Symptomatic RP Attacks, Change from Baseline, Mean [9] | Average Severity of Weekly Symptomatic RP Attacks, Change from Baseline, Median [9]
−1.07: Average Severity of Weekly RP Attacks (All Attacks), Change from Baseline, Mean [12] | Average Severity of Weekly RP Attacks (All Attacks), Change from Baseline, Median [12] | Average severity of weekly RP attacks, Change from Baseline, Mean [13] | Average severity of weekly RP attacks, Change from Baseline, Median [13] | Average severity of weekly RP attacks, Change from Baseline, Mean [14] | Average severity of weekly RP attacks, Change from Baseline, Median [14] | Average severity of weekly RP attacks, Change from Baseline, Mean [15] | Average severity of weekly RP attacks, Change from Baseline, Median [15]
2.30: Average Severity of Weekly Symptomatic RP Attacks, Mean [10] | Average Severity of Weekly Symptomatic RP Attacks, Median [10] | Average Severity of Weekly Symptomatic RP Attacks, Mean [11] | Average Severity of Weekly Symptomatic RP Attacks, Median [11] | Average Severity of Weekly RP Attacks (All Attacks), Mean [12] | Average Severity of Weekly RP Attacks (All Attacks), Median [12] | Average Severity (0-10) of weekly RP attacks, Mean [13] | Average Severity (0-10) of weekly RP attacks, Median [13] | Average Severity (0-10) of weekly RP attacks, Mean [14] | Average Severity (0-10) of weekly RP attacks, Median [14] | Average Severity (0-10) of weekly RP attacks, Mean [15] | Average Severity (0-10) of weekly RP attacks, Median [15] | Average Severity of Weekly Symptomatic RP Attacks, Mean [17] | Average Severity of Weekly Symptomatic RP Attacks, Median [17] | Average Severity of Weekly Symptomatic RP Attacks, Mean [18] | Average Severity of Weekly Symptomatic RP Attacks, Median [18]
3.77: Average Severity of Weekly Symptomatic RP Attacks, Mean [1] | Average Severity of Weekly Symptomatic RP Attacks, Median [1] | Average Severity of Weekly Symptomatic RP Attacks, Mean [2] | Average Severity of Weekly Symptomatic RP Attacks, Median [2] | Average Severity of Weekly Symptomatic RP Attacks, Mean [8] | Average Severity of Weekly Symptomatic RP Attacks, Median [8] | Average Severity of Weekly Symptomatic RP Attacks, Mean [9] | Average Severity of Weekly Symptomatic RP Attacks, Median [9]
8.05%: Average Severity of Weekly Symptomatic RP Attacks, Percent Change from Baseline, Mean [1] | Average Severity of Weekly Symptomatic RP Attacks, Percent Change from Baseline, Median [1] | Average Severity of Weekly Symptomatic RP Attacks, Percent Change from Baseline, Mean [2] | Average Severity of Weekly Symptomatic RP Attacks, Percent Change from Baseline, Median [2] | Average Severity of Weekly Symptomatic RP Attacks, Percent Change from Baseline, Mean (Cilnidipine 10 mg, ITT Part A) | Average Severity of Weekly Symptomatic RP Attacks, Percent Change from Baseline, Median (Cilnidipine 10 mg, ITT Part A) | Average Severity of Weekly Symptomatic RP Attacks, Percent Change from Baseline, Mean [7] | Average Severity of Weekly Symptomatic RP Attacks, Percent Change from Baseline, Median [7]
